{"source": "patent US11213506B2", "about": "“Combination therapy for the treatment or prevention of tumours” (QBIOTICS PTY LTD, priority 2017, dated 2022)", "key": {"[1]": {"test_system": "B16-OVA cells", "assay": "HMGB1 release assay (ELISA)", "format": "cell-based, mouse", "conditions": "120 minutes", "procedure": "(§1) A431 (human epidermoid carcinoma), MM649 (human melanoma) and B16-OVA (B16-F10 mouse melanoma cell line stably transfected with chicken ovalbumin) were cultured in RPMI-1640, 10% FCS (complete medium) at 37° C., 5% CO2 in a humidified incubator. BMDCs were cultured in R10 media (RPMI, 10% FCS, 2 mM glutamine, 50 μM beta-mercaptoethanol, Pen/Strep). All cell lines used in this study were confirmed as mycoplasma negative using MycoAlert (Lonza). STR profiling was also performed to confirm the identity of the human cell lines used.\nCell lines (A431, MM649 and B16-OVA) were plated into T75 cm^2 flasks (Nunc) in 10 ml of complete media and cultured at 37° C., 5% CO2 until they reached 90% confluency. Compounds 1, 2, 3 and 4 were diluted in 5 ml of identical media to a final concentration of 500 and 300 μM and then administered to the cells. Several flasks were prepared such that a kinetic curve of HMGB1 release in response to drug treatment could be established. Ethanol only controls were also generated. At the required timepoint, media was removed from the flask into a 10 ml polypropylene tube that was placed on ice for 5 mins. […] OD450 nm values were determined using a Hybrid Synergy H4 plate reader (BioTek). Absorbance values from drug treated samples were normalized to vehicle treated samples to determine the fold increase in HMGB1 release in response to epoxytigliane treatment."}, "[2]": {"test_system": "mouse stroma in SK-MEL-28 human melanoma xenografts", "assay": "Gene expression changes in mouse tumour stroma (Illumina BeadChip)", "format": "in vivo, BALB/c Foxn1nu mouse", "conditions": "30 μg Compound 1 injected into the tumour", "procedure": "The SK-MEL-28 human melanoma cell line was injected subcutaneously (s.c) into 2 sites on the flanks of each BALB/c Foxn1nu mouse (2 million cells/site) and allowed to grow to approximately 7 mm diameter. Each tumour was then injected with 50 μl of 20% propylene glycol containing 30 μg Compound 1 or with 50 μl of 20% propylene glycol. At different times after injection a mouse was euthanased and the tumours harvested, the skin covering removed, and the intact tumours stored at −80° C.\nRNA was extracted from 30 mg of frozen tumour using the Qiagen RNeasy Plus Mini Kit, according to manufacturer's instructions, then quantitated with a NanoDrop instrument and integrity confirmed on denaturing agarose gels bearing a 1 kb DNA marker and stained with ethidium bromide.\nApproximately 500 ng of total unlabelled RNA was adjusted to a final volume of 11 μl with nuclease-free water. The RNA was incubated with 9 μl of the reverse transcriptase master mix (1 μl of T7 Oligo (dT) Primer, 2 μl of 10× first strand buffer, 4 μl of dNTP mix, 1 μl of RNase inhibitor and 1 μl of ArrayScript) at 42° C. for 2 h. This was followed by the second strand cDNA synthesis step which involved a further incubation at 16° C. for 2 hr with 80 μl of the second strand master mix (63 μL nuclease-free water, 10 μl 10× second strand buffer, 4 μl dNTP mix, 2 μl DNA polymerase and 1 μl RNase H). The cDNA was purified by filtering through a cDNA Filter Cartridge with 250 μl of cDNA binding buffer and washing with 500 μl of the wash buffer provided in the kit. Purified cDNA was eluted with 20 μl of 55° C. nuclease-free water. Each cDNA sample was incubated with 7.5 μl of the IVT master mix (2.5 μl of T7 10× reaction buffer, 2.5 μl of T7 enzyme mix and 2.5 μl biotin-NTP mix) at 37° C. for 16 h. The reaction was stopped with the addition of 75 μl of nuclease-free water to each cRNA sample. The biotinylated, amplified RNA was purified by filtering the cRNA samples through cRNA Filter Cartridges with 350 μL of cRNA binding buffer and 250 μl of 100% ethanol mixed together prior to loading onto the filters. The cRNA filter cartridges with attached RNA were then washed with 650 μl of wash buffer before eluting purified cRNA with 200 μl of 55° C. nuclease-free water.\nThe cRNA samples were heated at 65° C. for 5 min and collected by pulse centrifugation. After heating at 65° C. for 5 min, approximately 750 ng of the cRNA sample was aliquoted into separate tubes to which were added ˜5 μl of RNase-free water and 10 μl of Hyb Mix. […]\nBeadChips were read by the iScan System, and transferred via GenomeStudio into GeneSpring GX v12.5 (Agilent Technologies, Santa Clara, Calif., USA). […] The entities were filtered based on the detection score calculated by GenomeStudio where p≤0.05 was considered significant."}, "[3]": {"test_system": "A431 cells", "assay": "ATP release assay", "format": "cell-based, human", "conditions": "both concentrations (500 and 300 μM), within 60 minutes", "procedure": "as §1\n(§2) Cell lines were plated at a density of 10,000 cells per well into clear 96-well plates (Corning, #3595; 100 μl of complete media) and the resultant plates incubated overnight as previously detailed. The following day, media was aspirated from each well and 50 μl of fresh medium was inserted. Stock solutions of Compounds 1, 2, 3 and 4 were diluted to 2× final assay concentration (1 mM and 600 μM) and 50 μl of these dilutions added to the required wells. Ethanol only control solutions were also compiled and administered. At the indicated timepoints, 80 μl of media was removed, centrifuged at 1,200 rpm for 4 mins to pellet cell debris and 50 μl assayed for ATP using a bioluminescence based ATP assay kit (FLAA, Sigma-Aldrich). Relative luminescence units were recorded for each sample using a Hybrid Synergy H4 plate reader (BioTek)."}, "[4]": {"test_system": "MM649 cells", "assay": "ATP release assay", "format": "cell-based, human", "conditions": "both concentrations (500 and 300 μM), within 60 minutes", "procedure": "as §1, §2"}}}
{"smiles": "C/C=C(\\C)C(=O)O[C@@H]1[C@@H](C)[C@@]2(O)[C@H]([C@@H]3C(C)(C)[C@]13OC(=O)[C@@H](C)CC)[C@@H]1O[C@]1(CO)[C@@H](O)[C@]1(O)C(=O)C(C)=C[C@H]12", "note": "[Compound 1, 12-tigloyl-13-(2-methylbutanoyl)-6,7-epoxy-4,5,9,12,13,20-hexahydroxy-1-tiglien-3-one]", "values": [{"measurement": "fold increase in HMBG1 release, normalised to vehicle treated cells", "setting": "[1]", "value": "greater than 3 fold"}, {"measurement": "Cxcl1 expression at the tumour site", "setting": "[2]", "value": "heavily upregulated"}, {"measurement": "expression of host cytokines/chemokines important for recruitment/activation of immune cells at the tumour site", "setting": "[2]", "value": "upregulated"}, {"measurement": "host gene expression changes associated with a Th-1/M-like response: IFN-γ, TNF, IL-δ and IL-1β", "setting": "[2]", "value": "induction"}, {"measurement": "TGF beta signalling (pathway analysis of gene expression)", "setting": "[2]; t=8 h", "value": "downregulation"}, {"measurement": "ATP release", "setting": "[3]", "value": "significant release of ATP"}, {"measurement": "ATP release", "setting": "[4]", "value": "significant release of ATP"}]}
